# Data taken from patent publication US20090105149A1, “Compounds comprising lpa” (ENKAM PHARMACEUTICALS A/S, priority 2003, published 2009).
# Key:
# [1] = test system: organotypic hippocampal neuronal slice cultures (OHSC); experiment: OGD, propidium iodide staining of OHSC; assay type: cell-based, rat
# Text: (§1) In the present study it was investigated the effect of the FGL peptide on synaptic plasticity, neuronal function and vulnerability following oxygen and glucose deprivation (OGD) in organotypic hippocampal neuronal slice cultures (OHSC) from 7-day-old Wistar rats according to method of Stoppini et al. (1991) Neurosci Methods. 37:173-82 and primary cultures of dissociated hippocampal neurons from 1-day-old rats according to method of Maar et al. (1997) J Neurosci Res. 47:163-72. Primary cell cultures were maintained for 11-12 days and OHSC for 12-14 days prior to adding FGLd.
# (§2) The primary cell cultures and OHSC were exposed to OGD for 10 and 20 minutes. Following OGD, the cultures were again supplied with oxygen and glucose and analysed at 1, 4 or 24 hour time point after introduction of OGD exposure. FGLd (or the control peptide FGLc) was added 24 hr before, immediately, or 1 hr or 24 hr after OGD. When administered prior to OGD, FGLd was removed from the medium when introducing OGD. In some cases, the slice cultures were treated with FGLd only at 4 hr after OGD. In addition, the FGFR inhibitor, SU5402 (25 μM), was added together with FGLd in some of the set-ups.
# (§3) In hippocampal neuronal cultures, FM 1-43 staining was used to evaluate pre-synaptic function (described above). Cell viability in both primary cell cultures and OHSC was measured using the […] [3-(4,5-dimethylthiazol-2-yl)-2,5-diphenyltetrazolium bromide] assay according to Malich et al, (1997) Toxicology. 124:179-92. In, addition, cell viability in OHSC was measured using propidium iodide (PI) staining according to Laake et al. (1999) Brain Res Brain Res Protoc. 4:173-84.
# [2] = test system: rats treated with (25-35) β-amyloid fragment; experiment: Neuronal density / cell death in brain sections, (25-35) β-amyloid fragment rat model; assay type: in vivo; details: days 7, 10, 13
# Method: The effect of 5.0 μg FGL per administration per rat, administered sub-occipitally on days 7, 10 and 13 after (25-35) β-amyloid (A-β) fragment-induced toxicity, on neuronal cell death in the CA3 zone of the rat hippocampus. The number of animals in the groups varied from 4 to 8.
# (§4) The number of animals in the groups varied from 4 to 8.
# as §4
# (§5) Behaviour of animals was evaluated using the Social Recognition test, the Open Field test or the Light-dark Discriminating γ-maze. On day 28-30 or day 51 after i.c.v. administration of the (25-35) β-amyloid fragment, the animals were sacrificed, and in selected studies, the brain tissue was collected, histological sections were immunostained with A-β specific antibodies and the amyloid-burden was calculated as a percentage of the A-βpositive area. In addition, the number of neurons in selected areas of brain-sections was calculated using a stereological approach.
# adult male Wistar rats = experiment: Contextual Fear Conditioning test; assay type: in vivo, rat; details: 5 μg immediately after training
# Text: In the Contextual Fear Conditioning test, rats experienced inescapable shocks when exposed to a *new environment, which results in the development of a conditioned fear response, consisting of a characteristic immobility or ‘freezing response’, when subsequently re-exposed to the same environment.
# The rats were handled for 120 seconds every day for 3 days preceding the first day of the experiment. On day 1 (training), the rats received a 1-second shock (unconditioned stimuli) each minute for two minutes. Animals were injected immediately after training with 5 μl FGLd (5 μg), the control peptide (5 μg) or the vehicle. Each treatment group consisted of 11-14 rats. In total, 39 animals were evaluated. Animals were tested on days 2, 7 and 30 by placing them in the chamber used for conditioning, but in the absence of a shock, for 8 minutes. Each rat was rated as either “freezing” or “active”, every 2 seconds, using a time-sampling procedure.
# [3] = test system: dissociated hippocampal neurons; experiment: OGD, FM 1-43 release in dissociated hippocampal cell cultures; assay type: cell-based, rat
# Text: as §1, §2, §3
# [4] = test system: rats treated with (25-35) β-amyloid fragment; experiment: Open Field test, (25-35) β-amyloid fragment rat model; assay type: in vivo; details: day 14; for time spent exploring holes / time spent rearing: sub-occipital, days 7, 10, 13
# Method: The peptide was applied sub-occipitally at days 7, 10, and 13 after the (25-35) β-amyloid fragment induced neurotoxicity. […] The number of animals per group varied from 9 to 11. ‘A-β’ and ‘V’ are the abbreviations of the (25-35) β-amyloid fragment and vehicle, respectively. The results were analysed using unpaired t-test and significance of results was contingent on achieving a p-value of less than 0.05 (*p<0.05, **p<0.01), when compared with the first measurement period (1-3 min.).
# The present study employed a rat model, in which neurotoxicity and cognitive impairment were induced by the (25-35) β-amyloid peptide fragment (see Maurice T., et al. (1996) (Brain Res. 706:181-93) and Delobette S., et al. (1997) Eur J Pharmacol. 319:1-4). Short-term memory deficit induced by the (25-35) β-amyloid peptide fragment in rat is of special importance to study, as it resembles one of the clinical manifestations of Alzheimer's disease. Short-term memory deficit in rats was evaluated using three different behavioural tests: the Social Recognition (Kogan et al, (2000) Hippocampus 10:47-56), Open Field (Cerbone and Sadile, (1994) Neurosci Biobehav Rev. 18:497-518; Vianna et al, (2000) Learn Mem. 7:333-40) and Y-maze (Clayton & Williams, (2000) Neurobiol Learn Mem. 74:135-45) tests. In addition, neuropathological investigations were performed on brain tissue collected at the time of sacrifice. The FGL peptide was administered either sub-occipitally or intranasally.
# as §5
substance,measurement,setting,value
FGLd: MAP-type dendrimer of FGL; dendrimeric tetramer of the FGL peptide (EVYVVAENQQGKSKA),PI staining (cell damage) after 10 minutes of OGD,[1]; slices pre-treated for 24 hours,almost completely abolished
same,PI staining (cell damage) after 10 minutes of OGD,[1]; treated immediately after OGD,Cell damage was also avoided
same,PI staining (cell damage) after 10 minutes of OGD,[1]; treatment delayed until 4 hours after OGD,not if FGLd treatment was delayed until 4 hours after OGD
same,neuro-histopathology evaluation of the CA3 area of hippocampus,"[2]; Study 1, sub-occipital",no significant effect
same,density of neurons in the CA3 zone of the hippocampus,"[2]; Study 2, sub-occipital 5 μg, β-amyloid only 15",22 neurons/mcm^2×10^−4
same,percentage of freezing time,"adult male Wistar rats; day 2 after conditioning, control 50.5%",73.5%
same,percentage of freezing time,"adult male Wistar rats; day 7 after conditioning, control 30.0%",60.3%
same,rate of FM 1-43 release after OGD,[3]; treated 24 hours before or immediately after OGD,the OGD-induced decrease in the rate of FM 1-43 release was diminished
same,rate of pre-synaptic vesicle release (FM 1-43 destaining) upon high potassium stimulation,"[3]; treatment without OGD, control 0.04",0.06 s⁻¹
same,locomotion activity,[4],unaffected
same,time spent exploring holes,[4]; first measurement period,3.3 s
same,time spent rearing,[4]; first measurement period,7.0 s
same,time spent exploring holes,[4]; last measurement period,0.1 s
same,time spent rearing,[4]; last measurement period,0.7 s
